Experimental data reported in patent US20240391862A1, “(1,4,5-TRISUBSTITUTED-1H-PYRAZOL-3-YL)OXY-2-ALKOXY ALKYL ACIDS AND THEIR DERIVATIVES, THEIR SALTS AND THEIR USE AS HERBICIDAL AGENTS” (Bayer AKtiengesellschaft, priority 2021, published 2024).

Experiments:
ZEAMX = test: Post-emergence herbicidal effect and crop plant compatibility, greenhouse pot test; assay type: in vivo, Zea mays; conditions: one-leaf stage, rated visually after about 3 weeks vs untreated controls; for plant injury at 20 g/ha: read-out: Post-emergence effect at 20 g/ha against ZEAMX in %; for plant injury at 80 g/ha: read-out: Post-emergence effect at 80 g/ha against ZEAMX in %
How it was run: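 Visual % activity scored roughly 3 weeks post-spray against untreated plants, where 100% means death and 0% equals control. Plants were treated at the one-leaf stage, 2 to 3 weeks after sowing in sandy loam, at 20 to 320 g/ha.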

VIOTR = test: Post-emergence herbicidal effect, greenhouse pot test; assay type: in vivo, Viola tricolor; conditions: Viola tricolor, 504 h, read-out: Post-emergence effect against VIOTR in %
How it was run: (§1)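 Greenhouse pot plants in sandy loam receive a one-leaf-stage spray at 20 to 320 g/ha. Activity is assessed visually around 3 weeks afterwards on a 0–100% scale, where 100% means the plants have died.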

VERPE = test: as above; assay type: in vivo, Veronica persica
How it was run: as §1

SETVI = test: as above; assay type: in vivo, Setaria viridis; conditions: for pest or weed control at 320 g/ha / Post-emergence effect against SETVI in %: 320 g/ha
How it was run: as §1

DIGSA = test: as above; assay type: in vivo, Digitaria sanguinalis; conditions: visual rating about 3 weeks after treatment; for pest or weed control at 320 g/ha / Post-emergence effect against DIGSA: 320 g/ha
How it was run: as §1

TRZAS = test: Post-emergence herbicidal effect and crop plant compatibility, greenhouse pot test; assay type: in vivo, Triticum aestivum; conditions: 20 g/ha, one-leaf stage, rated visually after about 3 weeks vs untreated controls; for percent crop injury (phytotoxicity) to wheat, post-emergence at 20 g/ha: Triticum aestivum, 504 h, read-out: Post-emergence effect at 20 g/ha against TRZAS in %
Description: • ALOMY: Alopecurus myosuroides SETVI: Setaria viridis • AVEFA: Avena fatua POLCO: Fallopia convolvulus • AMARE: Amaranthus retroflexus ECHCG: Echinochloa crus-galli • LOLRJ: Lolium rigidum STEME: Stellaria media • VERPE: Veronica persica MATIN: Tripleurospermum inodorum • DIGSA: Digitaria sanguinalis ABUTH: Abutylon threophrasti • TRZAS: Triticum aestivum VIOTR: Viola tricolor • BRSNW: Brassica napus ZEAMX: Zea mays • PHBPU: Ipomoea purpurea GLXMA: Glycine max • ORYSA: Oryza sativa HORMU: Hordeum murinum
Seeds of monocotyledonous and dicotyledonous weeds and crop plants are placed in sandy loam in plastic or organic planting pots, covered with soil and cultivated in a greenhouse under controlled growth conditions. 2 to 3 weeks after sowing, the trial plants are treated at the one-leaf stage. The compounds of the invention, formulated in the form of wettable powders (WP) or as emulsion concentrates (EC), are then sprayed onto the green parts of the plants as aqueous suspension or emulsion with addition of 0.5% additive at a water application rate of 600 l/ha (converted). After the test plants have been kept in the greenhouse under optimum growth conditions for about 3 weeks, the activity of the preparations is rated visually in comparison to untreated controls. For example, 100% activity=the plants have died, 0% activity=like control plants.
Tables 20a to 38c below show the effects/crop compatibilities of selected compounds of the general formula (I) on various harmful plants at an application rate corresponding to 20 to 320 g/ha, which were obtained by the trial procedure specified above.

MATIN = test: Post-emergence herbicidal effect, greenhouse pot test; assay type: in vivo, Tripleurospermum inodorum; conditions: 320 g/ha; for pest or weed control at 320 g/ha: Tripleurospermum inodorum, 504 h, read-out: Post-emergence effect against MATIN in %
How it was run: as §1

AVEFA = test: as above; assay type: in vivo, Avena fatua; conditions: 320 g/ha, visual rating about 3 weeks after treatment; for pest or weed control at 320 g/ha: Avena fatua, 504 h, read-out: Post-emergence effect against AVEFA
How it was run: as §1

ECHCG = test: as above; assay type: in vivo, Echinochloa crus-galli; conditions: for pest or weed control at 80 g/ha / pest or weed control at 320 g/ha: Echinochloa crus-galli, 504 h, read-out: Post-emergence effect against ECHCG in %
How it was run: as §1

KCHSC = test: as above; assay type: in vivo; conditions: 320 g/ha; for pest or weed control at 320 g/ha: 504 h, read-out: Post-emergence effect against KCHSC in %
How it was run: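 Visual rating of activity against untreated plants (100% = plants died, 0% = no effect), done about 3 weeks after treatment. Compounds applied at 20–320 g/ha as aqueous spray (600 l/ha, 0.5% additive) from WP or EC formulations onto one-leaf-stage plants grown in sandy loam under greenhouse conditions.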

PHBPU = test: as above; assay type: in vivo, Ipomoea purpurea
How it was run: as §1

ALOMY = test: as above; assay type: in vivo, Alopecurus myosuroides; conditions: 320 g/ha, visual rating about 3 weeks after treatment
How it was run: as §1

ABUTH = test: as above; assay type: in vivo, Abutilon theophrasti; conditions: visual rating about 3 weeks after treatment; for pest or weed control at 320 g/ha / Post-emergence effect against ABUTH: 320 g/ha
How it was run: as §1

AMARE = test: as above; assay type: in vivo, Amaranthus retroflexus; conditions: 320 g/ha, visual rating about 3 weeks after treatment
How it was run: as §1

POLCO = test: as above; assay type: in vivo, Fallopia convolvulus
How it was run: as §1

[1] = Veronica persica, 504 h, 320 g/ha, read-out: Post-emergence effect against VERPE in %
[2] = Setaria viridis, 504 h, read-out: Post-emergence effect against SETVI in %
[3] = Digitaria sanguinalis, 504 h, read-out: Post-emergence effect against DIGSA
[4] = Ipomoea purpurea, 504 h, 320 g/ha, read-out: Post-emergence effect against PHBPU in %
[5] = Abutilon theophrasti, 504 h, read-out: Post-emergence effect against ABUTH
[6] = Fallopia convolvulus, 504 h, 320 g/ha, read-out: Post-emergence effect against POLCO in %

Compound: CCOC(Oc1nn(-c2ccccc2F)c(-c2ccc(F)nc2)c1Br)C(=O)OCCC(=O)OC (single isomer, unassigned) [Example I-59, Methyl 3-{[(2RS)-2-{[4-bromo-1-(2-fluorophenyl)-5-(6-fluoropyridin-3-yl)-1H-pyrazol-3-yl]oxy}-2-ethoxyethanoyl]oxy}propanoate]
- plant injury at 20 g/ha (ZEAMX; Zea mays, 504 h, 20 g/ha): 20%
- pest or weed control at 80 g/ha (VIOTR; 80 g/ha): 90%
- pest or weed control at 320 g/ha (VIOTR): 90%
- pest or weed control at 80 g/ha (VERPE; Veronica persica, 504 h, 80 g/ha, read-out: Post-emergence effect against VERPE in %): 80%
- pest or weed control at 320 g/ha (VERPE; [1]): 80%
- pest or weed control at 80 g/ha (SETVI; Setaria viridis, 504 h, 80 g/ha, read-out: Post-emergence effect against SETVI in %): 80%
- pest or weed control at 320 g/ha (SETVI; [2]): 90%
- pest or weed control at 80 g/ha (DIGSA; Digitaria sanguinalis, 504 h, 80 g/ha, read-out: Post-emergence effect against DIGSA): 80%
- pest or weed control at 320 g/ha (DIGSA; [3]): 90%
- percent crop injury (phytotoxicity) to wheat, post-emergence at 20 g/ha (TRZAS): 0%
- pest or weed control at 320 g/ha (MATIN): 80%
- pest or weed control at 320 g/ha (AVEFA): 80%
- pest or weed control at 80 g/ha (ECHCG; 80 g/ha): 90%
- pest or weed control at 320 g/ha (ECHCG; 320 g/ha): 90%
- pest or weed control at 320 g/ha (KCHSC): 80%
- pest or weed control at 80 g/ha (PHBPU; Ipomoea purpurea, 504 h, 80 g/ha, read-out: Post-emergence effect against PHBPU in %): 90%
- pest or weed control at 320 g/ha (PHBPU; [4]): 90%
- pest or weed control at 320 g/ha (ALOMY; Alopecurus myosuroides, 504 h, read-out: Post-emergence effect against ALOMY): 90%
- pest or weed control at 80 g/ha (ABUTH; Abutilon theophrasti, 504 h, 80 g/ha, read-out: Post-emergence effect against ABUTH): 90%
- pest or weed control at 320 g/ha (ABUTH; [5]): 90%

Compound: CCOC(Oc1nn(-c2ccccc2F)c(-c2ccc(F)nc2)c1Br)C(=O)OCCC(=O)OC (single isomer, unassigned) [Example I-64, Methyl 3-{[(2R*)-2-{[4-bromo-1-(2-fluorophenyl)-5-(6-fluoropyridin-3-yl)-1H-pyrazol-3-yl]oxy}-2-ethoxyethanoyl]oxy}propanoate]
- plant injury at 20 g/ha (ZEAMX; Zea mays, 504 h, 20 g/ha): 20%
- Post-emergence effect against VERPE in % (VERPE; 80 g/ha): 80%
- Post-emergence effect against VERPE in % (VERPE; 320 g/ha): 80%
- Post-emergence effect against SETVI in % (SETVI): 90%
- Post-emergence effect against DIGSA (DIGSA): 80%
- percent crop injury (phytotoxicity) to wheat, post-emergence at 20 g/ha (TRZAS): 10%
- Post-emergence effect against MATIN in % (MATIN): 80%
- Post-emergence effect against AVEFA (AVEFA): 90%
- Post-emergence effect against ECHCG in % (ECHCG; 80 g/ha): 80%
- Post-emergence effect against ECHCG in % (ECHCG; 320 g/ha): 90%
- Post-emergence effect against KCHSC in % (KCHSC): 90%
- Post-emergence effect against PHBPU in % (PHBPU; 80 g/ha): 80%
- Post-emergence effect against PHBPU in % (PHBPU; 320 g/ha): 90%
- Post-emergence effect against ALOMY (ALOMY): 90%
- Post-emergence effect against ABUTH (ABUTH): 80%

Compound: COC(=O)CCOC(=O)C(OC)Oc1nn(-c2ncccc2F)c(-c2ccc(F)nc2)c1C1CC1 (single isomer, unassigned) [Example I-81]
- Post-emergence effect at 20 g/ha against ZEAMX in % (ZEAMX; 20 g/ha): 0%
- Post-emergence effect at 80 g/ha against ZEAMX in % (ZEAMX; 80 g/ha): 0%
- Post-emergence effect against AMARE (AMARE): 80%
- Post-emergence effect against SETVI in % (SETVI): 90%
- Post-emergence effect against DIGSA (DIGSA): 80%
- Post-emergence effect at 20 g/ha against TRZAS in % (TRZAS): 0%
- Post-emergence effect against AVEFA (AVEFA): 90%
- Post-emergence effect against ECHCG in % (ECHCG; 320 g/ha): 90%
- Post-emergence effect against KCHSC in % (KCHSC): 90%
- Post-emergence effect against PHBPU in % (PHBPU; 320 g/ha): 80%
- Post-emergence effect against POLCO in % (POLCO; 320 g/ha): 90%
- Post-emergence effect against ALOMY (ALOMY): 90%
- Post-emergence effect against ABUTH (ABUTH): 90%

Compound: COC(Oc1nn(-c2ncccc2F)c(-c2ccc(F)nc2)c1C1CC1)C(=O)O (stereo not shown) [Example I-56]
- Post-emergence effect at 320 g/ha against ZEAMX in % (ZEAMX; 320 g/ha): 20%
- plant injury at 20 g/ha (ZEAMX; Zea mays, 504 h, 20 g/ha): 0%
- plant injury at 80 g/ha (ZEAMX; Zea mays, 504 h, 80 g/ha): 0%
- pest or weed control at 320 g/ha (VIOTR): 90%
- pest or weed control at 320 g/ha (VERPE; [1]): 80%
- pest or weed control at 320 g/ha (SETVI; [2]): 80%
- pest or weed control at 320 g/ha (DIGSA; [3]): 80%
- percent crop injury (phytotoxicity) to wheat, post-emergence at 20 g/ha (TRZAS): 0%
- pest or weed control at 320 g/ha (AVEFA): 80%
- pest or weed control at 80 g/ha (ECHCG; 80 g/ha): 80%
- pest or weed control at 320 g/ha (ECHCG; 320 g/ha): 90%
- pest or weed control at 320 g/ha (KCHSC): 90%
- pest or weed control at 320 g/ha (PHBPU; [4]): 80%
- pest or weed control at 320 g/ha (POLCO; [6]): 80%
- pest or weed control at 320 g/ha (ABUTH; [5]): 80%

Compound: COC(Oc1nn(-c2ncccc2F)c(-c2ccc(F)nc2)c1C(F)(F)F)C(=O)O (stereo not shown) [Example I-57]
- plant injury at 20 g/ha (ZEAMX; Zea mays, 504 h, 20 g/ha): 0%
- plant injury at 80 g/ha (ZEAMX; Zea mays, 504 h, 80 g/ha): 0%
- plant injury at 320 g/ha (ZEAMX; Zea mays, 504 h, 320 g/ha, read-out: Post-emergence effect at 320 g/ha against ZEAMX in %): 0%
- pest or weed control at 320 g/ha (VIOTR): 80%
- percent crop injury (phytotoxicity) to wheat, post-emergence at 20 g/ha (TRZAS): 0%
- pest or weed control at 320 g/ha (AVEFA): 80%
- pest or weed control at 320 g/ha (ECHCG; 320 g/ha): 90%
- pest or weed control at 320 g/ha (KCHSC): 90%
- pest or weed control at 320 g/ha (PHBPU; [4]): 80%
- pest or weed control at 320 g/ha (POLCO; [6]): 80%

Compound: COC(Oc1nn(-c2ccccc2F)c(-c2ccc(F)nc2)c1C1CC1)C(=O)O (stereo not shown) [Example I-69]
- plant injury at 20 g/ha (ZEAMX; Zea mays, 504 h, 20 g/ha): 0%
- plant injury at 80 g/ha (ZEAMX; Zea mays, 504 h, 80 g/ha): 0%
- pest or weed control at 320 g/ha (VIOTR): 90%
- pest or weed control at 320 g/ha (VERPE; [1]): 80%
- percent crop injury (phytotoxicity) to wheat, post-emergence at 20 g/ha (TRZAS): 0%
- pest or weed control at 320 g/ha (MATIN): 80%
- pest or weed control at 320 g/ha (ECHCG; 320 g/ha): 90%
- pest or weed control at 320 g/ha (KCHSC): 80%
- pest or weed control at 320 g/ha (PHBPU; [4]): 80%
- pest or weed control at 80 g/ha (POLCO; Fallopia convolvulus, 504 h, 80 g/ha, read-out: Post-emergence effect against POLCO in %): 80%
- pest or weed control at 320 g/ha (POLCO; [6]): 80%
- pest or weed control at 320 g/ha (ABUTH; [5]): 90%
